In patent publication US20080044436A1, “Method for Screening and Compositions for Treating Cancers” (priority 2004, published 2008):
Each block holds one molecule with its values, some of them ahead of it.

Target: T1, PR (Homo sapiens, UniProt P06401)
T1 construct: made in house; host or cells: PR-B: rabbit reticulocyte lysate / T7 RNA polymerase in vitro translation (Promega)
T1 sequence (P06401 1-933): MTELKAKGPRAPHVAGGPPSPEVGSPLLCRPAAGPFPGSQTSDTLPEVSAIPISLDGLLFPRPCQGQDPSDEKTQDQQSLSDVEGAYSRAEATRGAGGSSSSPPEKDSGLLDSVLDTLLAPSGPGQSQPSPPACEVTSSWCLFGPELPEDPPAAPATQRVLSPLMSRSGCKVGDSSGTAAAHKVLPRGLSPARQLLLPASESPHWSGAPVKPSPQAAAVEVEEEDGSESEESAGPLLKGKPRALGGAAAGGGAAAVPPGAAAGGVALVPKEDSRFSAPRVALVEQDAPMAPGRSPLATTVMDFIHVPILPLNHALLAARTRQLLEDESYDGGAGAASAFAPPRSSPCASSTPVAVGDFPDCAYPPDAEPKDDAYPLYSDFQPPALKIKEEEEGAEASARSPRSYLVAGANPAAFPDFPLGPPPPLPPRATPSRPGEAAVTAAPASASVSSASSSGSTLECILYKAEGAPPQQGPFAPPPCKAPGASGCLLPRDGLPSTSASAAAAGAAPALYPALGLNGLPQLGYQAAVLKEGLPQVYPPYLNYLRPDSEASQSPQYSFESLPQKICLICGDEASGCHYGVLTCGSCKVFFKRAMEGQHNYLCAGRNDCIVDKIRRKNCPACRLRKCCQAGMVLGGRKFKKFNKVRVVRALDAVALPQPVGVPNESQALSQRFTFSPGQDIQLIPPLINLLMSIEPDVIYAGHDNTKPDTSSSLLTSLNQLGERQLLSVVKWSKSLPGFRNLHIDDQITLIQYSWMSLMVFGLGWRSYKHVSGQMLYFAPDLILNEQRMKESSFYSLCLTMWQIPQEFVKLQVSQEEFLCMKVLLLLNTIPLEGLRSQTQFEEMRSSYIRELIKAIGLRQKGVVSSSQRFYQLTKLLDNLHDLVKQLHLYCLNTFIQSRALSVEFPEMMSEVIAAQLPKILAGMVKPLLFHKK
T1 sequence (Q96PN7 1-1200 partner): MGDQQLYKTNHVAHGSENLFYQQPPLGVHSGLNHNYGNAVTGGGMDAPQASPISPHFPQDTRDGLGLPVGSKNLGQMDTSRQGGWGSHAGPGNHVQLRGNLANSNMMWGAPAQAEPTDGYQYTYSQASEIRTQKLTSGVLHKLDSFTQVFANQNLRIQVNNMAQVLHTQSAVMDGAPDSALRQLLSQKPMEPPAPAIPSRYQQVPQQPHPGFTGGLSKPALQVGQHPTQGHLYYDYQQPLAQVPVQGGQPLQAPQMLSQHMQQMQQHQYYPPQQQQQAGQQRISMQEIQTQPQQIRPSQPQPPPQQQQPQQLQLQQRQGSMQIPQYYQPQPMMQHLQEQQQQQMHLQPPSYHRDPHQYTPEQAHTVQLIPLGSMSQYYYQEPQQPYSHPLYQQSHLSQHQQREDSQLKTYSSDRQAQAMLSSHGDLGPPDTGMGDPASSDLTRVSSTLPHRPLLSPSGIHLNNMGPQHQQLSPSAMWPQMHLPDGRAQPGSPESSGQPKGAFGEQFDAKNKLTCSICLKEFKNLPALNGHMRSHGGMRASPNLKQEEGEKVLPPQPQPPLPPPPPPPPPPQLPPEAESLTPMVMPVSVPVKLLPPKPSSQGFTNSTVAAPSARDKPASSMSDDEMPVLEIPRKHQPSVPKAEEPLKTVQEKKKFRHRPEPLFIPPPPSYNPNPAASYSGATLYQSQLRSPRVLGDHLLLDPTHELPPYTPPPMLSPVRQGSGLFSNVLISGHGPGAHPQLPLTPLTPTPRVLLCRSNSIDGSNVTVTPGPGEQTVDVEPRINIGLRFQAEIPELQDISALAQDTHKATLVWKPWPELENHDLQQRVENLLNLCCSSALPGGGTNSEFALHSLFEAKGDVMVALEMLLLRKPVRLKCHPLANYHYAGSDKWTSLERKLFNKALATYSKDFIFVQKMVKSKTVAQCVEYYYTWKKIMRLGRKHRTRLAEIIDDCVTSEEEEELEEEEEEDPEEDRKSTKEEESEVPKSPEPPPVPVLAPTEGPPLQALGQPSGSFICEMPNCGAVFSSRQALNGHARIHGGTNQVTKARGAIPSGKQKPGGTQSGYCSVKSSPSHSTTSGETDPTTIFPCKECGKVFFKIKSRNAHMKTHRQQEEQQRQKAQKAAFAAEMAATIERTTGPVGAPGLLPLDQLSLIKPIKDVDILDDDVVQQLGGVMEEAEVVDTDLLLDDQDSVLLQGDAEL
Test: GST pull-down, TReP-132 and PR
Assay type: binding
Procedure: FIG. 14D left: GST-TReP-132 immobilized on glutathione-Sepharose was incubated with ^35-[S]-methionine-labelled PR, in the absence or with increasing concentrations of progesterone (0-10 μM). Specific interactions were analyzed by comparison with the results obtained by incubating GST with ^35-[S]-PR, in the presence of 100 μM progesterone (GST).
FIG. 14D right: GST-TReP-132 wt, GST-TReP-132 ml (mutated at the LRQLL site) and GST-TReP-132 m2 (mutated at the LEMLL site) were analyzed for interaction with ^35-[S]-PR as described earlier, in the presence of 10 μM progesterone. Input PR: 1/10th of the radiolabelled PR level used in the experiments.
In order to evaluate the interaction of TReP-132, Sp1, ER and PR, the wt and mutant GST-TReP-132 fusion proteins were expressed, then immobilized on glutathione-Sepharose as described (Frangioni and Neel, 1993; Monte et al., 1998). The ^35S-[Sp1], ^35S-[ER] and ^35S-[PR-B] proteins were synthesized in vitro using a rabbit reticulocyte lysate and T7 RNA polymerase system as directed by the manufacturer (Promega Corporation, Madison, Wis.). Proteins which bound, then detached from the Sepharose after being heated to boiling in SDS buffer were then separated on a 10% SDS-PAGE gel. The gels were stained with Coomassie blue, dried and autoradiographed.

- TReP-132/PR interaction in presence of progesterone (GST-TReP-132 and 35S-PR, progesterone 0-10 μM): increased in a dose-dependent manner
Molecule: CC(=O)[C@H]1CC[C@H]2[C@@H]3CCC4=CC(=O)CC[C@]4(C)[C@H]3CC[C@]12C [progesterone, reference compound]

- interaction with PR (GST pull-down with 35S-PR): interact
B1: TReP-132: Transcriptional Regulating Protein of 132 kDa, polypeptide comprising SEQ ID NO: 2; here expressed in cells from vectors (protein)
chain: T1 sequence (Q96PN7 1-1200 partner)
